Data from patent US12152020B2, “Pesticidally active azole-amide compounds” (SYNGENTA PARTICIPATIONS AG, priority 2018, dated 2024).

Tests used:
Format in all cases: in vivo
[1] = test system: Spodoptera littoralis (Egyptian Cotton Leaf Worm); assay: Example B9: Spodoptera littoralis, cotton leaf discs sprayed, L1 larvae; settings: foliar, 72 h, application rate of 200 ppm, five L1 larvae, 3 days after infestation, in comparison to untreated samples, read-out: control in at least one of the categories (mortality, anti-feedant effect, or growth inhibition)
Experimental: Example B9: Spodoptera littoralis (Egyptian Cotton Leaf Worm)
Cotton leaf discs were placed onto agar in 24-well microtiter plates and sprayed with aqueous test solutions prepared from 10′000 ppm DMSO stock solutions. After drying the leaf discs were infested with five L1 larvae. The samples were assessed for mortality, anti-feeding effect, and growth inhibition in comparison to untreated samples 3 days after infestation. Control of Spodoptera littoralis by a test sample is given when at least one of the categories mortality, anti-feedant effect, and growth inhibition is higher than the untreated sample.

[2] = test system: Myzus persicae (Green Peach Aphid); assay: Example B8: Myzus persicae intrinsic activity, sucrose solution under Parafilm, 24-well; settings: 120 h, test rate of 12 ppm, 5 days after infestation
Source text: Example B8: Myzus persicae (Green Peach Aphid): Intrinsic Activity
Test compounds prepared from 10′000 ppm DMSO stock solutions were applied by pipette into 24-well microtiter plates and mixed with sucrose solution. The plates were closed with a stretched Parafilm. A plastic stencil with 24 holes was placed onto the plate and infested pea seedlings were placed directly on the Parafilm. The infested plate was closed with a gel blotting paper and another plastic stencil and then turned upside down. The samples were assessed for mortality 5 days after infestation.

[3] = test system: Thrips tabaci (Onion thrips); assay: Example B12: Thrips tabaci feeding/contact activity, sunflower leaf discs; settings: foliar, 144 h, application rate of 200 ppm, thrips population of mixed ages, 6 days after infestation
Experimental: Example B12: Thrips tabaci (Onion thrips): Feeding/Contact Activity
(§1) Sunflower leaf discs were placed on agar in 24-well microtiter plates and sprayed with aqueous test solutions prepared from 10′000 ppm DMSO stock solutions. After drying the leaf discs were infested with a thrips population of mixed ages. The samples were assessed for mortality 6 days after infestation.

[4] = test system: Plutella xylostella (Diamond Back Moth); assay: Example B5: Plutella xylostella, artificial diet in 24-well plates, eggs; settings: 192 h, application rate of 200 ppm, 8 days after infestation, in comparison to untreated samples, read-out: effect in at least one of the two categories (mortality or growth inhibition)
Experimental: Example B5: Plutella xylostella (Diamond Back Moth)
24-well microtiter plates with artificial diet were treated with aqueous test solutions prepared from 10′000 ppm DMSO stock solutions by pipetting. After drying, Plutella eggs were pipetted through a plastic stencil onto a gel blotting paper and the plate was closed with it. The samples were assessed for mortality and growth inhibition in comparison to untreated samples 8 days after infestation.
The following compounds gave an effect of at least 80% in at least one of the two categories (mortality or growth inhibition) at an application rate of 200 ppm: • P1, P2, P3, P4, P5, P7, P8, P9, P14, P15, P16, P17, P18, P21, P22, P23, P24, P25, P27, P28, P29, P30, P31, P32, P33, P34, P35, P36

[5] = test system: Diabrotica balteata (Corn Root Worm); assay: Example B1: Diabrotica balteata, maize sprouts sprayed, L2 larvae; settings: 96 h, application rate of 200 ppm, 4 days after infestation, in comparison to untreated samples, read-out: effect in at least one of the two categories (mortality or growth inhibition)
Experimental: Example B1: Diabrotica balteata (Corn Root Worm)
Maize sprouts placed onto an agar layer in 24-well microtiter plates were treated with aqueous test solutions prepared from 10′000 ppm DMSO stock solutions by spraying. After drying, the plates were infested with L2 larvae (6 to 10 per well). The samples were assessed for mortality and growth inhibition in comparison to untreated samples 4 days after infestation.
The following compounds gave an effect of at least 80% in at least one of the two categories (mortality or growth inhibition) at an application rate of 200 ppm: • P2, P3, P4, P5, P6, P7, P8, P14, P15, P16, P17, P18, P19, P20, P21, P22, P23, P24, P25, P27, P28, P29, P30, P31, P32, P33, P34, P35

[6] = test system: Plutella xylostella (Diamondback Moth); assay: Example B14: Plutella xylostella, artificial diet in 96-well plates, eggs; settings: 216 h, application rate of 500 ppm, 9 days after infestation
Experimental: Example B14: Plutella xylostella (Diamondback Moth)
96-well microtiter plates containing artificial diet were treated with aqueous test solutions, prepared from 10′000 ppm DMSO stock solutions, by a liquid handling robot. After drying, eggs (˜30 per well) were infested onto a netted lid which was suspended above the diet. The eggs hatch and L1 larvae move down to the diet. The samples were assessed for mortality 9 days after infestation.
The following compounds gave an effect of at least 80% average mortality at an application rate of 500 ppm: • P2, P3, P5, P6, P7, P9, P15, P16, P17, P18, P20, P22, P24, P25, P30, P31, P32, P33, P38.

[7] = test system: Euschistus heros (Neotropical Brown Stink Bug); assay: Example B2: Euschistus heros, soybean leaves sprayed, N2 nymphs; settings: 120 h, application rate of 200 ppm, 5 days after infestation, in comparison to untreated samples, read-out: effect in at least one of the two categories (mortality or growth inhibition)
Experimental: Example B2: Euschistus heros (Neotropical Brown Stink Bug)
Soybean leaves on agar in 24-well microtiter plates were sprayed with aqueous test solutions prepared from 10′000 ppm DMSO stock solutions. After drying the leaves were infested with N2 nymphs. The samples were assessed for mortality and growth inhibition in comparison to untreated samples 5 days after infestation.
The following compounds gave an effect of at least 80% in at least one of the two categories (mortality or growth inhibition) at an application rate of 200 ppm: • P1, P2, P3, P7, P11, P12, P16, P17, P18, P22, P25, P29, P32, P33, P37, P38

[8] = test system: Myzus persicae (Green Peach Aphid); assay: Example B13: Myzus persicae, sucrose solution under Parafilm, 96-well; settings: 120 h, application rate of 50 ppm, 5 days after infestation
Source text: Example B13: Myzus persicae (Green Peach Aphid)
Test compounds prepared from 10′000 ppm DMSO stock solutions were applied by a liquid handling robot into 96-well microtiter plates and mixed with a sucrose solution. Parafilm was stretched over the 96-well microtiter plate and a plastic stencil with 96 holes was placed onto the plate. Aphids were sieved into the wells directly onto the Parafilm. The infested plates were closed with a gel blotting card and a second plastic stencil and then turned upside down. The samples were assessed for mortality 5 days after infestation.

[9] = test system: Myzus persicae (Green Peach Aphid); assay: Example B6: Myzus persicae feeding/contact activity, sunflower leaf discs; settings: foliar, 144 h, application rate of 200 ppm, aphid population of mixed ages, 6 days after infestation
Experimental: Example B6: Myzus persicae (Green Peach Aphid): Feeding/Contact Activity
Sunflower leaf discs were placed onto agar in a 24-well microtiter plate and sprayed with aqueous test solutions prepared from 10′000 ppm DMSO stock solutions. After drying, the leaf discs were infested with an aphid population of mixed ages. The samples were assessed for mortality 6 days after infestation.

[10] = test system: Chilo suppressalis (Striped Rice Stemborer); assay: Example B4: Chilo suppressalis, artificial diet, L2 larvae; settings: 144 h, application rate of 200 ppm, 6 days after infestation, in comparison to untreated samples, read-out: control in at least one of the categories (mortality, anti-feedant effect, or growth inhibition)
Experimental: Example B4: Chilo suppressalis (Striped Rice Stemborer)
24-well microtiter plates with artificial diet were treated with aqueous test solutions prepared from 10′000 ppm DMSO stock solutions by pipetting. After drying, the plates were infested with L2 larvae (6-8 per well). The samples were assessed for mortality, anti-feeding effect, and growth inhibition in comparison to untreated samples 6 days after infestation. Control of Chilo suppressalis by a test sample is given when at least one of the categories mortality, anti-feedant effect, and growth inhibition is higher than the untreated sample.

[11] = test system: Myzus persicae (Green Peach Aphid); assay: Example B7: Myzus persicae systemic activity, pea seedling roots in test solution; settings: 144 h, test rate of 24 ppm, 6 days after placing seedlings into test solutions
Experimental: Example B7: Myzus persicae (Green Peach Aphid): Systemic Activity
Roots of pea seedlings infested with an aphid population of mixed ages were placed directly into aqueous test solutions prepared from 10′000 DMSO stock solutions. The samples were assessed for mortality 6 days after placing seedlings into test solutions.

[12] = test system: Frankliniella occidentalis (Western Flower Thrips); assay: Example B3: Frankliniella occidentalis feeding/contact activity, sunflower leaf discs; settings: foliar, 168 h, application rate of 200 ppm, population of mixed ages, 7 days after infestation
Experimental: Example B3: Frankliniella occidentalis (Western Flower Thrips):Feeding/Contact Activity
as §1, with “[…]” for “10′000 ppm”, “Frankliniella” for “thrips”, “7” for “6”

CC(c1nc(N)nn1-c1ncccn1)N(C)C(=O)c1cc(C(F)(F)F)cc(C(F)(F)F)c1 (stereo not shown) [Compound P7, N-[1-(5-amino-2-pyrimidin-2-yl-1,2,4-triazol-3-yl)ethyl]-N-methyl-3,5-bis(trifluoromethyl)benzamide]
≥ 80%: percent control (mortality, anti-feedant effect or growth inhibition) at 200 ppm [1] | mortality at 12 ppm [2] | mortality at 200 ppm [3] | percent effect (mortality or growth inhibition) at 200 ppm [4] | percent effect (mortality or growth inhibition) at 200 ppm [5] | mortality at 500 ppm [6] | percent effect (mortality or growth inhibition) at 200 ppm [7] | mortality at 50 ppm [8] | mortality at 200 ppm [9]

CC(c1nc(N=C(c2ccccc2)c2ccccc2)nn1-c1ncccn1)N(C)C(=O)c1cc(C(F)(F)F)cc(C(F)(F)F)c1 (stereo not shown) [Compound P22, N-[1-[5-(benzhydrylideneamino)-2-pyrimidin-2-yl-1,2,4-triazol-3-yl]ethyl]-N-methyl-3,5-bis(trifluoromethyl)benzamide]
≥ 80%: percent control (mortality, anti-feedant effect or growth inhibition) at 200 ppm [1] | mortality at 12 ppm [2] | mortality at 200 ppm [3] | percent effect (mortality or growth inhibition) at 200 ppm [4] | percent effect (mortality or growth inhibition) at 200 ppm [5] | mortality at 500 ppm [6] | percent effect (mortality or growth inhibition) at 200 ppm [7] | mortality at 50 ppm [8] | mortality at 200 ppm [9]

CC(NC(=O)c1cc(C(F)(F)F)cc(C(F)(F)F)c1)c1nc(S(C)(=O)=O)nn1-c1ncccn1 (stereo not shown) [Compound P21, N-[1-(5-methylsulfonyl-2-pyrimidin-2-yl-1,2,4-triazol-3-yl)ethyl]-3,5-bis(trifluoromethyl) benzamide]
≥ 80%: percent control (mortality, anti-feedant effect or growth inhibition) at 200 ppm [1] | percent control (mortality, anti-feedant effect or growth inhibition) at 200 ppm [10] | mortality at 12 ppm [2] | mortality at 24 ppm [11] | percent effect (mortality or growth inhibition) at 200 ppm [4] | percent effect (mortality or growth inhibition) at 200 ppm [5] | mortality at 50 ppm [8] | mortality at 200 ppm [9]

CC(c1nc(N(C)C)nn1-c1ncccn1)N(C)C(=O)c1cc(C(F)(F)F)cc(C(F)(F)F)c1 (stereo not shown) [Compound P16, N-[1-[5-(dimethylamino)-2-pyrimidin-2-yl-1,2,4-triazol-3-yl]ethyl]-N-methyl-3,5-bis(trifluoromethyl) benzamide]
≥ 80%: percent control (mortality, anti-feedant effect or growth inhibition) at 200 ppm [1] | mortality at 12 ppm [2] | mortality at 24 ppm [11] | percent effect (mortality or growth inhibition) at 200 ppm [4] | percent effect (mortality or growth inhibition) at 200 ppm [5] | mortality at 500 ppm [6] | percent effect (mortality or growth inhibition) at 200 ppm [7] | mortality at 50 ppm [8] | mortality at 200 ppm [12] | mortality at 200 ppm [9]

CNc1nc(C(C)N(C)C(=O)c2cc(C(F)(F)F)cc(C(F)(F)F)c2)n(-c2ncccn2)n1 (stereo not shown) [Compound P18, N-methyl-N-[1-[5-(methylamino)-2-pyrimidin-2-yl-1,2,4-triazol-3-yl]ethyl]-3,5-bis(trifluoromethyl) benzamide]
≥ 80%: percent control (mortality, anti-feedant effect or growth inhibition) at 200 ppm [1] | mortality at 12 ppm [2] | mortality at 200 ppm [3] | percent effect (mortality or growth inhibition) at 200 ppm [4] | percent effect (mortality or growth inhibition) at 200 ppm [5] | mortality at 500 ppm [6] | percent effect (mortality or growth inhibition) at 200 ppm [7] | mortality at 50 ppm [8] | mortality at 200 ppm [9]

CC(c1nc(I)nn1-c1ncccn1)N(CC1CC1)C(=O)c1cc(C(F)(F)F)cc(C(F)(F)F)c1 (stereo not shown) [Compound P5, N-(cyclopropylmethyl)-N-[1-(5-iodo-2-pyrimidin-2-yl-1,2,4-triazol-3-yl)ethyl]-3,5-bis(trifluoromethyl) benzamide]
≥ 80%: percent control (mortality, anti-feedant effect or growth inhibition) at 200 ppm [1] | mortality at 200 ppm [3] | percent effect (mortality or growth inhibition) at 200 ppm [4] | percent effect (mortality or growth inhibition) at 200 ppm [5] | mortality at 500 ppm [6] | mortality at 50 ppm [8]

CNC(=O)c1nc(C(C)N(C)C(=O)c2cc(C(F)(F)F)cc(C(F)(F)F)c2)n(-c2ncccn2)n1 (stereo not shown) [Compound P12, 5-[1-[[3.5-bis(trifluoromethyl)benzoyl]-methyl-amino]ethyl]-N-methyl-1-pyrimidin-2-yl-1,2,4-triazole-3-carboxamide]
≥ 80%: percent control (mortality, anti-feedant effect or growth inhibition) at 200 ppm [10] | mortality at 12 ppm [2] | mortality at 24 ppm [11] | percent effect (mortality or growth inhibition) at 200 ppm [7] | mortality at 50 ppm [8] | mortality at 200 ppm [12] | mortality at 200 ppm [9]
